Data published in ChEMBL document CHEMBL4359892, “Discovery of novel indolylarylsulfones as potent HIV-1 NNRTIs via structure-guided scaffold morphing” (Eur J Med Chem, 2019).

Experiments:
[1] = Cytotoxicity against human MT4 cells assessed as reduction in cell viability incubated for 5 days by MTT assay; assay type: cell-based
[2] = test system: Human immunodeficiency virus 1; experiment: Antiviral activity against drug resistant HIV-1 harboring reverse transcriptase Y188L mutant infected in human MT4 cells assessed as reduction in virus-induced cytopathic effect incubated for 5 days by MTT assay; assay type: functional, organism-based; details: Human immunodeficiency virus 1, MT4, 120 h
[3] = Selectivity index, ratio of CC50 for human MT4 cells to EC50 for antiviral activity against HIV RES056; assay type: toxicity; details: read-out: Ratio CC50/EC50
[4] = Selectivity index, ratio of CC50 for human MT4 cells to EC50 for antiviral activity against HIV IIIB; assay type: toxicity; details: read-out: Ratio CC50/EC50
[5] = test system: Human immunodeficiency virus 1; experiment: Antiviral activity against HIV-1 3B infected in human MT4 cells assessed as reduction in virus-induced cytopathic effect incubated for 5 days by MTT assay; assay type: functional, organism-based; details: Human immunodeficiency virus 1, 3B, MT4, 120 h
[6] = test system: Human immunodeficiency virus 1; experiment: Antiviral activity against drug resistant HIV-1 RES056 harboring reverse transcriptase K103N/Y181C double mutant infected in human MT4 cells assessed as reduction in virus-induced cytopathic effect incubated for 5 days by MTT assay; assay type: functional, organism-based; details: Human immunodeficiency virus 1, RES056, MT4, 120 h
[7] = test system: Human immunodeficiency virus 1; experiment: Antiviral activity against drug resistant HIV-1 harboring reverse transcriptase F227L/V106A double mutant infected in human MT4 cells assessed as reduction in virus-induced cytopathic effect incubated for 5 days by MTT assay; assay type: functional, organism-based; details: Human immunodeficiency virus 1, MT4, 120 h
[8] = test system: Human immunodeficiency virus 1; experiment: Antiviral activity against drug resistant HIV-1 harboring reverse transcriptase E138K mutant infected in human MT4 cells assessed as reduction in virus-induced cytopathic effect incubated for 5 days by MTT assay; assay type: functional, organism-based; details: Human immunodeficiency virus 1, MT4, 120 h
[9] = test system: Human immunodeficiency virus 1; experiment: Antiviral activity against drug resistant HIV-1 harboring reverse transcriptase L100I mutant infected in human MT4 cells assessed as reduction in virus-induced cytopathic effect incubated for 5 days by MTT assay; assay type: functional, organism-based; details: Human immunodeficiency virus 1, MT4, 120 h
[10] = test system: Human immunodeficiency virus 1; experiment: Antiviral activity against drug resistant HIV-1 harboring reverse transcriptase Y181C mutant infected in human MT4 cells assessed as reduction in virus-induced cytopathic effect incubated for 5 days by MTT assay; assay type: functional, organism-based; details: Human immunodeficiency virus 1, MT4, 120 h
[11] = test system: Human immunodeficiency virus 1; experiment: Antiviral activity against drug resistant HIV-1 harboring reverse transcriptase K103N mutant infected in human MT4 cells assessed as reduction in virus-induced cytopathic effect incubated for 5 days by MTT assay; assay type: functional, organism-based; details: Human immunodeficiency virus 1, MT4, 120 h

Row | Structure (SMILES) | CC50 at 120 h [1] | EC50 [2] | selectivity ratio [3] | selectivity ratio [4] | EC50 [5] | EC50 [6] | EC50 [7] | EC50 [8] | EC50 [9] | EC50 [10] | EC50 [11]
1 | Cc1cc(C)cc(S(=O)(=O)c2c(C(=O)NS(=O)(=O)c3ccc(F)cc3)[nH]c3ccc(Cl)cc23)c1 | > 253 µM | > 253 µM | < 1 | > 86 | 2.95 µM | > 253 µM | 38.6 µM | 3.78 µM | 10 µM | 45.8 µM | 21.6 µM
2 | Cc1cc(C)cc(S(=O)(=O)c2c(C(=O)NC3CN(CC(N)=O)C3)[nH]c3ccc(Cl)cc23)c1 | 25.5 µM |  | < 1 | 1940 | 0.013 µM | > 25.5 µM |  |  |  |  | 
3 | Cc1cc(C)cc(S(=O)(=O)c2c(C(=O)NC3CN(Cc4ccccc4F)C3)[nH]c3ccc(Cl)cc23)c1 | > 238 µM |  | > 4 | > 7810 | 0.03 µM | 65.1 µM |  |  |  |  | 
4 | CCS(=O)(=O)NC(=O)c1[nH]c2ccc(Cl)cc2c1S(=O)(=O)c1cc(C)cc(C)c1 | > 284 µM | > 284 µM |  | > 96 | 2.95 µM | > 284 µM | 11.3 µM | 0.59 µM | 4.4 µM | 12.9 µM | 10.2 µM
5 | Cc1cc(C)cc(S(=O)(=O)c2c(C(=O)NCCP(=O)(O)O)[nH]c3ccc(Cl)cc23)c1 | > 237 µM |  |  | > 1100 | 0.21 µM | > 237 µM |  |  |  |  | 
6 | Cc1cc(C)cc(S(=O)(=O)c2c(C(=O)NC3CN(S(C)(=O)=O)C3)[nH]c3ccc(Cl)cc23)c1 | > 252 µM |  |  | > 15200 | 0.017 µM | > 252 µM |  |  |  |  | 
7 | Cc1cc(C)cc(S(=O)(=O)c2c(C(=O)NC3CNC3)[nH]c3ccc(Cl)cc23)c1 | 37.3 µM |  | < 1 | 495 | 0.074 µM | ≥ 37.3 µM |  |  |  |  | 
8 | Cc1cc(C)cc(S(=O)(=O)c2c(C(=O)N[C@@H]3CCN(Cc4ccccc4F)C3)[nH]c3ccc(Cl)cc23)c1 | > 232 µM |  |  | > 1860 | 0.12 µM | > 232 µM |  |  |  |  | 
9 | Cc1cc(C)cc(S(=O)(=O)c2c(C(=O)NC3CN(Cc4cccnc4)C3)[nH]c3ccc(Cl)cc23)c1 | 36 µM |  | < 1 | 2480 | 0.015 µM | > 36 µM |  |  |  |  | 
10 | Cc1cc(C)cc(S(=O)(=O)c2c(C(=O)N[C@H]3CCN(Cc4n[nH]c(=O)n4C)C3)[nH]c3ccc(Cl)cc23)c1 | 21.4 µM |  | < 1 | 2980 | 0.0072 µM | ≥ 21.4 µM |  |  |  |  | 
11 | CCOP(=O)(CCNC(=O)c1[nH]c2ccc(Cl)cc2c1S(=O)(=O)c1cc(C)cc(C)c1)OCC | 131 µM | > 131 µM | < 1 | 100 | 1.31 µM | > 131 µM | 7.25 µM | 1.2 µM | 6.81 µM | 6.71 µM | 3.43 µM
12 | Cc1cc(C)cc(S(=O)(=O)c2c(C(=O)NS(=O)(=O)C3CC3)[nH]c3ccc(Cl)cc23)c1 | 147 µM | > 147 µM | < 1 | 57 | 2.6 µM | > 147 µM | 11.8 µM | 0.33 µM | 8.17 µM | 18.6 µM | 12.1 µM
13 | Cc1cc(C)cc(S(=O)(=O)c2c(C(=O)N[C@H]3CCN(Cc4ccccc4C#N)C3)[nH]c3ccc(Cl)cc23)c1 | > 229 µM |  | > 1 | > 1350 | 0.17 µM | 174 µM |  |  |  |  | 
14 | Cc1cc(C)cc(S(=O)(=O)c2c(C(=O)NC3CN(Cc4ccccc4C#N)C3)[nH]c3ccc(Cl)cc23)c1 | > 235 µM |  | > 4 | > 18700 | 0.013 µM | 66.8 µM |  |  |  |  | 
15 | Cc1cc(C)cc(S(=O)(=O)c2c(C(=O)NS(=O)(=O)C(F)(F)F)[nH]c3ccc(Cl)cc23)c1 | 141 µM | > 141 µM | < 1 | 393 | 0.36 µM | > 141 µM | 3.53 µM | 0.92 µM | 1.41 µM | 5.51 µM | 2.48 µM
16 | Cc1cc(C)cc(S(=O)(=O)c2c(C(=O)N[C@@H]3CCN(Cc4cccnc4)C3)[nH]c3ccc(Cl)cc23)c1 | 36.5 µM |  | < 1 | 627 | 0.057 µM | ≥ 36.5 µM |  |  |  |  | 

Row | Structure (SMILES) | CC50 at 120 h [1] | EC50 [2] | selectivity ratio [3] | selectivity ratio [4] | EC50 [5] | EC50 [6] | EC50 [7] | EC50 [8] | EC50 [9] | EC50 [10] | EC50 [11]
17 | Cc1cc(C)cc(S(=O)(=O)c2c(C(=O)N[C@H]3CCN(Cc4cccnc4)C3)[nH]c3ccc(Cl)cc23)c1 | 22.8 µM |  | < 1 | 2010 | 0.011 µM | ≥ 22.8 µM |  |  |  |  | 
18 | CCCS(=O)(=O)NC(=O)c1[nH]c2ccc(Cl)cc2c1S(=O)(=O)c1cc(C)cc(C)c1 | 146 µM | > 146 µM | < 1 | 61 | 2.4 µM | > 146 µM | 20.6 µM | 0.43 µM | 10.9 µM | 29.6 µM | 17.3 µM
19 | Cc1cc(C)cc(S(=O)(=O)c2c(C(=O)N[C@@H]3CCNC3)[nH]c3ccc(Cl)cc23)c1 | 37.3 µM |  | < 1 |  | 0.049 µM | ≥ 9.72 µM |  |  |  |  | 
20 | Cc1cc(C)cc(S(=O)(=O)c2c(C(=O)NS(=O)(=O)c3ccc(F)cc3F)[nH]c3ccc(Cl)cc23)c1 | 121 µM | > 121 µM | < 1 | 37 | 3.23 µM | > 121 µM | 30 µM | 4.04 µM | 8.86 µM | > 121 µM | 15 µM
21 | Cc1cc(C)cc(S(=O)(=O)c2c(C(=O)NS(C)(=O)=O)[nH]c3ccc(Cl)cc23)c1 | 40.1 µM |  | ≤ 4 | 4180 | 0.0096 µM | ≥ 9.44 µM |  |  |  |  | 
22 | Cc1cc(C)cc(S(=O)(=O)c2c(C(=O)N[C@H]3CCN(Cc4ccccc4F)C3)[nH]c3ccc(Cl)cc23)c1 | 215 µM |  | < 1 | 2580 | 0.083 µM | ≥ 215 µM |  |  |  |  | 
23 | Cc1cc(C)cc(S(=O)(=O)c2c(C(=O)NC3CN(Cc4n[nH]c(=O)n4C)C3)[nH]c3ccc(Cl)cc23)c1 | 25.2 µM | 2.16 µM | > 224 | 224 | 0.11 µM | > 25.2 µM | 1.17 µM | 0.28 µM | 0.104 µM | 1.69 µM | 0.51 µM
24 | Cc1cc(C)cc(S(=O)(=O)c2c(C(=O)NCCn3ccc(=O)[nH]c3=O)[nH]c3ccc(Cl)cc23)c1 | > 265 µM |  |  | > 60 | 4.42 µM | > 265 µM |  |  |  |  | 
25 | Cc1cc(C)cc(S(=O)(=O)c2c(C(=O)N[C@@H]3CCN(Cc4ccccc4C#N)C3)[nH]c3ccc(Cl)cc23)c1 | ≥ 186 µM |  |  | 2580 | 0.053 µM | > 186 µM |  |  |  |  | 
26 | Cc1cc(C)cc(S(=O)(=O)c2c(C(=O)N[C@H]3CCNC3)[nH]c3ccc(Cl)cc23)c1 | 10 µM |  | < 1 | 473 | 0.021 µM | ≥ 10 µM |  |  |  |  | 
27 | Cc1cc(C)cc(S(=O)(=O)c2c(C(=O)NS(=O)(=O)c3ccccc3)[nH]c3ccc(Cl)cc23)c1 | 167 µM | > 167 µM | < 1 | 96 | 1.73 µM | > 167 µM | 7.4 µM | 2.01 µM | 2.17 µM | 5.33 µM | 3.23 µM
28 | Cc1cc(C)cc(S(=O)(=O)c2c(C(=O)N[C@@H]3CCN(Cc4n[nH]c(=O)n4C)C3)[nH]c3ccc(Cl)cc23)c1 | 22.4 µM |  | < 1 | 634 | 0.035 µM | ≥ 22.4 µM |  |  |  |  | 
29 | O=C1Nc2ccc(Cl)cc2[C@@](C#CC2CC2)(C(F)(F)F)O1 [EFAVIRENZ] | > 6.35 µM | 0.27 µM |  |  | 0.0086 µM | 0.26 µM | 0.25 µM |  |  | 0.0083 µM | 
30 | Nc1ccn([C@@H]2CS[C@H](CO)O2)c(=O)n1 [LAMIVUDINE] | > 87.2 µM | 4.45 µM | > 16 |  | 3.88 µM | 5.54 µM | 1.92 µM | 3.58 µM | 3.14 µM | 4.54 µM | 3.7 µM
31 | Cc1ccnc2c1NC(=O)c1cccnc1N2C1CC1 [NEVIRAPINE] | > 15 µM | > 15 µM |  |  | 0.38 µM | > 15 µM | > 15 µM | 0.18 µM | 1.24 µM | > 15 µM | 7.18 µM
